The term pIC50 denotes the negative decadic logarithm of the IC50, by convention in mol/L.

pIC50: −log10 of the molar value.

For assay [1], the target named is T1, F70Cf (Klebsiella pneumoniae, UniProt C7C422, F70C).
T1 construct: made in house; host or cells: E. coli BL21 (DE3), pET-3k vector; labelled with F5M after purification
Briefly: Fluorescence microplate reader measurements of F70Cf. The format is binding. As to conditions: for Initial increase in fluorescence signal, microplate reader: mole ratio 1:1500, FIGS. 8A-8D; for Fluorescence signal of F70Cf as a function of time, microplate reader: mole ratio of F70Cf to test substance 1:1500, FIGS. 6A-6B, 8E. As to the method:
To investigate compatibility of F70Cf with a high-throughput screening platform, a F70Cf was initially added to a fluorescence microplate reader followed by injection of 1:1500 cefotaxime and cephalothin, respectively.
For high-throughput inhibitor screening experiments, the fluorescence signal changes were recorded by adding 10 μL of each inhibitor (final concentration: 200 μM) automatically into 250 μL of F70Cf (final concentration: 0.13 μM) in a 96-well plate containing 50 μM ZnCl2, 20 mM, pH7.0, Tris-HCl buffer, using Thermo Scientific Varioskan LUX Multimode Microplate Reader (Thermo Fisher Scientific) (n=3). The excitation and emission wavelengths were 494 and 520 nm, respectively. The injection of each inhibitor started at 0.5 min.

The target in assay [2] is T1, F70Cf. In words: Time-course fluorescence measurements of F70Cf on a spectrofluorometer. The format is binding. As to conditions: for Fluorescence signal of F70Cf with inhibitor: F70Cf 0.13 μM, inhibitor 0, 2, 20 and 200 μM, excitation 494 nm, emission 518 nm, L-arginine 200 μM (1:1500) as control, FIGS. 7A-7E; for Initial phase of fluorescence increase (speed of binding to F70Cf): spectrophotometer, FIGS. 7A-7D; for Fluorescence signal of F70Cf with β-lactam antibiotic as a function of time: spectrofluorometer, mole ratios 1:150 and 1:1500, FIGS. 5A-5B. An excerpt: To investigate fluorescence response of the proposed NDM-1 mutant to two existing β-lactam antibiotics, fluorescein-labelled NDM-1 mutant, F70Cf, was mixed with cefotaxime and cephalothin in two concentrations (in mole ratios of 1:150 and 1:1500) and compared the fluorescence intensity level of these two samples with a blank (i.e., no cefotaxime nor cephalothin, or mole ratio=1:0) under a spectrofluorometer. […] It has been shown in other previous studies (Chan et al., 2008; Tsang et al., 2011) that binding of β-lactam antibiotics to the enzyme's active site induces the […] to depart from the active site, so that the fluorescein label (F5M) becomes well exposed to external aqueous environment and/or stays away from amino acid quenchers in the active site. When the […] is hydrolyzed to the acid product, the fluorescein label (F5M) returns to the active site, thus restoring its weak fluorescence signal.
Time-course fluorescence measurements were recorded at 518 nm by exciting the F70Cf (final concentration: 0.13 μM) at 494 nm with different concentrations of the inhibitors (0, 2, 20 and 200 μM, respectively) in labelling buffer (50 μM ZnCl2, 20 mM Tris-HCl buffer, pH 7.0) in a quartz cuvette. Triplicate measurements were performed for each inhibitor. L-arginine in 200 μM was also used as a control.

Another assay concerns the target NDM-1 (Klebsiella pneumoniae, UniProt C7C422). As to conditions: previous studies (Brem et al., 2016; Klingler et al., 2015; Ma et al., 2019); cited from earlier work.
In assay [3] the target is T1, F70Cf. In words: Native ESI-MS binding study of F70Cf with inhibitors. As to conditions: 20 mM ammonium acetate with 50 μM ZnCl2, FIGS. 9A-9F. As to the method:
To further verify that F70Cf can bind to these non-β-lactam inhibitors non-covalently, native ESI-MS measurements were performed. […] Prior to ESI-MS analysis, protein was buffer-exchanged into 20 mM ammonium acetate with 50 μM ZnCl2 buffer with ultra-filtration devices. Equal volumes of F70Cf and inhibitors were mixed in a molar ratio of 1:20 for 10 minutes, and the mixture was directly loaded into metal-coated glass capillaries, which were subsequently mounted onto the nano-ESI source for MS analysis […].

Assay [4] has as its target T2, F70Cf (fluorescein-labelled NDM-1 mutant) (Klebsiella pneumoniae, UniProt C7C422, F70C).
T2 construct: made in house; host or cells: E. coli BL21 (DE3), pET-3k vector; labelled with F5M after purification
In words: Specific activity against antibiotics by ultraviolet-visible spectroscopy (antibiotic hydrolysis). The format is biochemical. As to conditions: enzyme 0.001 mg/ml, 100 μM antibiotic, 50 μM ZnCl2, 20 mM Tris-HCl buffer, pH 7.0. As to the method:
(§1) Specific activity (U/mg) of wild-type NDM-1, F70C and F70Cf against different antibiotics were measured by ultraviolet-visible spectroscopy. Enzymes (final concentration: 0.001 mg/ml) were incubated with 100 μM of different antibiotics: cefotaxime, ceftazidime, penicillin G, ampicillin and meropenem, in 500 μL buffer (50 μM ZnCl2, 20 mM Tris-HCl buffer, pH 7.0). Antibiotic hydrolysis was monitored at 264 nm (cefotaxime), 260 nm (ceftazidime), 240 nm (penicillin G), 235 nm (ampicillin) and 297 nm (meropenem). The molar extinction coefficients were used as follows: cefotaxime=−7250 M^−1 cm^−1, ceftazidime=−8660 M^−1 cm^−1, penicillin G=−560 M^−1 cm^−1, ampicillin=900 M^−1 cm^−1 and meropenem −10940 M^−1 cm^−1.

Another assay addresses T3, F70C (NDM-1 mutant) (Klebsiella pneumoniae, UniProt C7C422, F70C).
T3 construct: made in house; host or cells: E. coli BL21 (DE3), pET-3k vector
The description is as above. The format is biochemical. The following applies: enzyme 0.001 mg/ml, 100 μM antibiotic, 50 μM ZnCl2, 20 mM Tris-HCl buffer, pH 7.0. As to the method: as §1

In a further assay the target is T4, Wild-type NDM-1 (Klebsiella pneumoniae, UniProt C7C422).
T4 construct: made in house; host or cells: E. coli BL21 (DE3), pET-3k vector
T4 sequence (C7C422 29-270 limits assumed): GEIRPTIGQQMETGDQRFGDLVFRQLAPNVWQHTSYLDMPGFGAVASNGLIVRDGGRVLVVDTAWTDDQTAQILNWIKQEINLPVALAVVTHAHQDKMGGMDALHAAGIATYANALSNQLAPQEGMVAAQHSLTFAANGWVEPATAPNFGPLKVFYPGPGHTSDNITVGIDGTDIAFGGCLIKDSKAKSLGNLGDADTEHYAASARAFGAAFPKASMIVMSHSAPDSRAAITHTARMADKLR
Described as above. The format is biochemical. The following applies: enzyme 0.001 mg/ml, 100 μM antibiotic, 50 μM ZnCl2, 20 mM Tris-HCl buffer, pH 7.0. As to the method: as §1

T1 sequence (C7C422 29-270 F70C): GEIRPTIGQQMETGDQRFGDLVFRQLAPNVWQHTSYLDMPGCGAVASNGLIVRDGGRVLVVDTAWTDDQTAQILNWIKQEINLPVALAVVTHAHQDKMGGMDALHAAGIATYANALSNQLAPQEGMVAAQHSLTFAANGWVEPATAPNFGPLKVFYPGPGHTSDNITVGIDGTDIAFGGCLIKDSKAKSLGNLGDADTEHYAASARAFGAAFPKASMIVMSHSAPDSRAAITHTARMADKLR
T2 sequence (C7C422 29-270 F70C): as above
T3 sequence (C7C422 29-270 F70C): as above

Take `O=C(O)CNC(=O)C(CS)Cc1ccccc1` (racemic) [DL-thiorphan]: the “Initial increase in fluorescence signal, microplate reader” value at F70Cf [1] was “much faster than that of L-captopril”. Besides, at F70Cf [2], the “Fluorescence signal of F70Cf with inhibitor” value was “increased with an increasing dose of the inhibitors” and the “Initial phase of fluorescence increase (speed of binding to F70Cf)” value was “bind much faster to F70Cf as compared L-captopril”. The negative-log IC50 (pIC50) at NDM-1 is 5.74. Moreover, on F70Cf [3], the “Formation of non-covalent complex with F70Cf” value is listed as “can form non-covalent complexes with F70Cf in a significant population”.

Take `CC1(C)S[C@@H]2[C@H](NC(=O)[C@H](N)c3ccccc3)C(=O)N2[C@H]1C(=O)O` [Ampicillin, ampicillin]: in assay [4], the “Specific activity, F70Cf” value amounted to 779 ± 114 U/mg. Besides, on F70C (NDM-1 mutant), the “Specific activity, F70C” value is given as 13880 ± 1406 U/mg. The “Specific activity, Wild-type NDM-1” value at Wild-type NDM-1 worked out at 16349 ± 880 U/mg.

`CO/N=C(\C(=O)N[C@@H]1C(=O)N2C(C(=O)O)=C(COC(C)=O)CS[C@H]12)c1csc(N)n1` [Cefotaxime, cefotaxime]: the “Fluorescence signal of F70Cf as a function of time, microplate reader” value (from here on “Fluorescence signal of F70Cf … microplate reader”) on F70Cf [1] was “stronger fluorescence signals and then declining fluorescence signals as a function of time”. In addition, on F70Cf [2], the “Fluorescence signal of F70Cf with β-lactam antibiotic as a function of time” value is “fluorescence signals increased and then decreased gradually as a function of time”. In addition, in assay [4], the “Specific activity, F70Cf” value amounted to 1529 ± 121 U/mg. In addition, the “Specific activity, F70C” value on F70C (NDM-1 mutant) turned out to be 8195 ± 1960 U/mg. Besides, the “Specific activity, Wild-type NDM-1” value at Wild-type NDM-1 turned out to be 8166 ± 937 U/mg.

On to `CC(C)(O/N=C(\C(=O)N[C@@H]1C(=O)N2C(C(=O)[O-])=C(C[n+]3ccccc3)CS[C@H]12)c1csc(N)n1)C(=O)O` [Ceftazidime, ceftazidime], for which the “Specific activity, F70Cf” value in assay [4] amounted to 308 ± 33 U/mg. Moreover, on F70C (NDM-1 mutant), the “Specific activity, F70C” value worked out at 3835 ± 216 U/mg. In addition, the “Specific activity, Wild-type NDM-1” value at Wild-type NDM-1 is 3446 ± 150 U/mg.

Regarding `N=C(N)NCCC[C@H](N)C(=O)O` [L-arginine], the “Fluorescence signal of F70Cf … microplate reader” value on F70Cf [1] is recorded as “no fluorescence signals”. Further, the “Fluorescence signal of F70Cf with inhibitor” value on F70Cf [2] is reported as “no fluorescence signal”. In addition, the “Formation of non-covalent complex with F70Cf” value on F70Cf [3] is “virtually cannot form a F70Cf-L-arginine complex in a significant population”.

`C[C@@H](O)[C@H]1C(=O)N2C(C(=O)O)=C(S[C@@H]3CN[C@H](C(=O)N(C)C)C3)[C@H](C)[C@H]12` [Meropenem, meropenem]: in assay [4], the “Specific activity, F70Cf” value turned out to be 506 ± 30 U/mg. In addition, on F70C (NDM-1 mutant), the “Specific activity, F70C” value is reported as 5863 ± 291 U/mg. Besides, at Wild-type NDM-1, the “Specific activity, Wild-type NDM-1” value was 6834 ± 1582 U/mg.

For the compound `CC1(C)S[C@@H]2[C@H](NC(=O)Cc3ccccc3)C(=O)N2[C@H]1C(=O)O` [Penicillin G, penicillin G], in assay [4], the “Specific activity, F70Cf” value stood at 10720 ± 330 U/mg. For the same compound, on F70C (NDM-1 mutant), the “Specific activity, F70C” value came out at 60854 ± 1436 U/mg. Also, on Wild-type NDM-1, the “Specific activity, Wild-type NDM-1” value was 54764 ± 3013 U/mg.

For the compound `CC(=O)OCC1=C(C(=O)O)N2C(=O)[C@@H](NC(=O)Cc3cccs3)[C@H]2SC1` [cephalothin], the “Fluorescence signal of F70Cf … microplate reader” value at F70Cf [1] is “stronger fluorescence signals and then declining fluorescence signals as a function of time”. Also, on F70Cf [2], the “Fluorescence signal of F70Cf with β-lactam antibiotic as a function of time” value is “fluorescence signals increased and then decreased gradually as a function of time”.

In the case of “peptide with an amino acid sequence of GSKKPVPIIYCNRRTGKCQRM (SEQ ID NO: 9), from GL Biochem [thanatin]”, the “Initial increase in fluorescence signal, microplate reader” value in the assay with F70Cf [1] was “much faster than that of L-captopril”. For the same compound, in the assay with F70Cf [2], the “Fluorescence signal of F70Cf with inhibitor” value is “increased with an increasing dose of the inhibitors” and the “Initial phase of fluorescence increase (speed of binding to F70Cf)” value was “bind much faster to F70Cf as compared L-captopril”. The pIC50 with NDM-1 was 5.49. The “Formation of non-covalent complex with F70Cf” value with F70Cf [3] is “can form non-covalent complexes with F70Cf in a significant population”.

(Values after US20260265724A1, “BIOSENSOR COMPRISING A MODIFIED BETA-LACTAMASE AND USES THEREOF” (priority 2022, published 2026).)
